One assay has as its target human PDE9A (Homo sapiens, UniProt O76083). Conditions: isolated enzyme, concentrations of up to 100 micromolar (μM); cited from earlier work.
Another assay deals with T1, Murine PDE9A (Mus musculus, UniProt O70628).
T1 sequence (O70628 1-534): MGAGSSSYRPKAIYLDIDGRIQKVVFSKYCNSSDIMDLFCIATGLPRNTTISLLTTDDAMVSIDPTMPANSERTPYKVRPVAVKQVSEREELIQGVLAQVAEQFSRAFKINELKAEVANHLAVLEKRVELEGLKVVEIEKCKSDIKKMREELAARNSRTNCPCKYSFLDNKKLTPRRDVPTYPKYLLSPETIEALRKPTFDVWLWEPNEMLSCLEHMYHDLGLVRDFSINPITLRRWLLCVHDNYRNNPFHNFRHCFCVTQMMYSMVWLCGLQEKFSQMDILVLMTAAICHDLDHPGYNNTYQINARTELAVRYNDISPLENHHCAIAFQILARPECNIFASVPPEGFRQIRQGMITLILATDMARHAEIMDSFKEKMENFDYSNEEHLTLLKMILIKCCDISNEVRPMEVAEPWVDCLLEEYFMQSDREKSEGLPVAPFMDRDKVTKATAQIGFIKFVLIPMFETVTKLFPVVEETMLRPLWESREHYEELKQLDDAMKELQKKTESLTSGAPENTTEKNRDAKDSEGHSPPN
To be noted: concentrations below 200 micromolar; cited from earlier work.

The next assay addresses PDE1C (Homo sapiens, UniProt Q14123). The assay can be described thus: PDE1C assay, run analogously to the PDE9A2 assay. In kind it is biochemical. Conditions: ratio PDE1C vs PDE9A2. The source says:
The reaction can be stopped by applying the same inhibitor as the one that is outlined above (1-(2-Chlorophenyl)-6-[(2R)-3,3,3-trifluoro-2-methyl-propyl]-1,5-dihydro-4H-pyrazolo[3,4-d]pyrimidine-4-one).
(§1) IC50 can be calculated with GraphPadPrism or other suitable software setting the positive control as 100 and the negative control as 0. For calculation of IC50, dilutions of the test compounds […] are selected and tested following the aforementioned protocol.
Selectivity is the ratio (IC50 for PDE1C inhibition [nanomolar (nM)])/(IC50 for PDE9A2 inhibition [nanomolar (nM)]).

The target in another assay is T2, human PDE9A2 (Homo sapiens, UniProt O76083).
T2 construct: made in house; host or cells: Sf9 insect cells (crude lysate, not purified)
T2 sequence (O76083 1-533 isoform O76083-2): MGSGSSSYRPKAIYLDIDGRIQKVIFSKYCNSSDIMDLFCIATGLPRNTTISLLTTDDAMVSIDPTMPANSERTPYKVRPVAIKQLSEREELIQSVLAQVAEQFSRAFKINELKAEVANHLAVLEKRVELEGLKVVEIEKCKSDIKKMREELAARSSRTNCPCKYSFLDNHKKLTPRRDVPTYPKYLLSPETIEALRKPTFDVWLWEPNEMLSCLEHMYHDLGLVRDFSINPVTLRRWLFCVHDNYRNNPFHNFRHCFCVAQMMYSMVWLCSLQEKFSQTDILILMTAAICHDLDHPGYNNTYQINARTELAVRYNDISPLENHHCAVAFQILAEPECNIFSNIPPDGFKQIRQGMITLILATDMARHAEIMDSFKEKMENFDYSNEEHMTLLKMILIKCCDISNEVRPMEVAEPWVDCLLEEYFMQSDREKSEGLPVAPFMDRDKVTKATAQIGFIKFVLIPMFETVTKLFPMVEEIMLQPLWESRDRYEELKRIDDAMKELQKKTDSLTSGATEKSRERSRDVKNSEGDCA
The assay is described as follows: PDE9A2 enzymatic activity assay (scintillation proximity assay). In kind it is biochemical. To be noted: SPA, lysate of SF9 cells expressing human PDE9A2, 20 nanomolar cGMP. The protocol: The total protein amount included in the assay varied upon infection and production efficacy of the SF9 cells and lay in the range of 0.1-100 ng.
The assays were run in 384-well format. The test reagents as well as the enzyme and the substrate were diluted in assay buffer. The assay buffer contained 50 mM Tris, 8.3 mM MgCl2, 1.7 mM EGTA, 0.1% BSA, 0.05% Tween 20; the pH of assay buffer was adjusted to 7.5.
as §1

human PDE9A, sequence (O76083 whole entry): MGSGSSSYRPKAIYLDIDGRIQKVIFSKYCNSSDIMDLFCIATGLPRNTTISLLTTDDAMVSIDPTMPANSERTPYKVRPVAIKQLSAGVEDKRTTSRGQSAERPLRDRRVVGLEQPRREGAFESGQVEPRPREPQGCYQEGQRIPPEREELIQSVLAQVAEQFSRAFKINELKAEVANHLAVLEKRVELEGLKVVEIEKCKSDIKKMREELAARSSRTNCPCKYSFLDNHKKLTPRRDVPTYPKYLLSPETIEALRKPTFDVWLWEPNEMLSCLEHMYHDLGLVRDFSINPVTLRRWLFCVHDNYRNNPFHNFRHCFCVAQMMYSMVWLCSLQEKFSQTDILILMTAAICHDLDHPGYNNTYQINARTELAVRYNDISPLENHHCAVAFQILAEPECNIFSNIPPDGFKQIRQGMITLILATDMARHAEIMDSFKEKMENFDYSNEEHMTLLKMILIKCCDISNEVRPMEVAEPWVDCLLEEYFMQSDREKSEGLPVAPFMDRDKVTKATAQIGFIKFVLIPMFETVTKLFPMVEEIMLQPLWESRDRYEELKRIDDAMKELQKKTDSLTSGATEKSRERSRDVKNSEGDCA

As to `CC(=O)Nc1ccc(-c2c[nH]c(=O)cn2)cc1` [SKF94120], at human PDE9A, the “inhibition of human PDE9A” value is “no inhibition”. As to `CC(C)Cn1c(=O)n(C)c(=O)c2[nH]cnc21` [IBMX], at Murine PDE9A, the “inhibition of murine PDE9A” value is on record as “not inhibited”. The “inhibition of human PDE9A” value at human PDE9A is recorded as “no inhibition”. On to `CCOC(=O)C1=C[C@]2(CC)CCCN3CCc4c(n1c1ccccc41)[C@@H]32` [vinpocetine], for which, at human PDE9A, the “inhibition of human PDE9A” value is on record as “no inhibition”. On to `O=c1[nH]c([C@@H]2CC[C@H]2c2cn3ccc(Cl)cc3n2)nc2c1cnn2C1CCC(F)(F)CC1` (racemic) [Example 5], for which the “Selectivity (IC50 for PDE1C inhibition / IC50 for PDE9A2 inhibition)” value at PDE1C is 40. On human PDE9A2, this compound returned an IC50 of 10 nM. Take `OCCN(CCO)c1nc(N2CCCCC2)c2nc(N(CCO)CCO)nc(N3CCCCC3)c2n1` [dipyridamole]: the “inhibition of human PDE9A” value on human PDE9A is “no inhibition”. For the compound `O=c1[nH]c([C@@H]2CC[C@H]2c2cn3ccccc3n2)nc2c1cnn2C1CCC(F)(F)CC1` (racemic) [Example 4], the “Selectivity (IC50 for PDE1C inhibition / IC50 for PDE9A2 inhibition)” value at PDE1C is 123. The concentration for half-maximal inhibition (IC50) on human PDE9A2 turned out to be 6 nM.

For the compound `COc1ccc(C2CNC(=O)C2)cc1OC1CCCC1` (stereo not shown) [rolipram], the “inhibition of human PDE9A” value at human PDE9A is “no inhibition”.

The values above are taken from patent publication US8809345B2, “6-cycloalkyl-pyrazolopyrimidinones for the treatment of CNS disorders” (Boehringer Ingelheim International GmbH, priority 2011, dated 2014).
